Laboratory results as given in patent US4782160A, “1,4-dihydropyridine derivatives” (Yamanouchi Pharmaceutical Co., Ltd., priority 1986, dated 1988).

Tests used:
[1] = Acute toxicity in mice, intravenous (Up and Down Method); conditions: mouse, in vivo, i.v., ICR-SLC mice, n=10
Description: Acute toxicity of the test compound was evaluated according to the method of Brownlee, Hodges and Rosenblatt (The Up and Down Method with Small Samples. J. Am. Stat. As., 48, 262-277, 1953). The […] value of the test compound after intravenous injection to ICR-SLC mice was obtained (Table 3).

[2] = target: [^3 H]-Nitrendipine-labeled calcium channels; experiment: [3H]-nitrendipine binding assay in rat brain membranes (Ca2+-antagonistic activity); conditions: mean of 3 experiments, 95% confidence limits in parenthesis on next line
Description: 1. Ca^2+ -Antagonistic activity:
Ca^2+ -Antagonistic activity of the compound was evaluated in [^3 H]-nitrendipine ([^3 H]-NIT) binding assay.

[3] = test system: conscious normotensive rats; experiment: Hypotensive activity: blood pressure and heart rate in conscious normotensive rats after oral administration; assay type: in vivo, rat
Description: The effect of the compound on arterial blood pressure (systolic, SBP mean, MBP diastolic, DBP) and heart rate (HR) was evaluated in conscious normotensive rats (NTR). Four to six days before the experiments, a polyethylene catheter for recording arterial blood pressure was surgically implanted into the thoracic aorta via the carotid artery under ether anesthesia. Arterial blood pressure and heart rate were recorded under freely moving conditions. The test compounds were suspended in 0.5% methylcellulose solution and administered by oral gavage.
Table 2 summarizes the changes in HR, SBP, MBP and DBP of conscious NTR after oral administration of the test compounds.

[4] = based on calcium antagonistic activity; cited from earlier work

Compound: COC(=O)C1=C(C)NC(C)=C(C(=O)OC)C1c1cc([N+](=O)[O-])ccc1OCCCCNCCCOc1ccccc1 [Example 1, dimethyl 4-[2-[4-(3-phenoxypropylamino)butoxy]-5-nitrophenyl]-2,6-dimethyl-1,4-dihydropyridine-3,5-dicarboxylate]
- LD50 [1]: 29 mg/kg
- Ki [2]: 0.075 µM
- DBP Change (Δ) ([3]; 30 mg/kg p.o., 1 hr, n=6, initial 103 ± 3.6): -13.0 mmHg
- MBP Change (Δ) ([3]; 30 mg/kg p.o., 1 hr, n=6, initial 114 ± 3.6): -12.1 mmHg
- SBP Change (Δ) ([3]; 30 mg/kg p.o., 1 hr, n=6, initial 137 ± 3.7): -10.2 mmHg
- HR Change (Δ) ([3]; 30 mg/kg p.o., 1 hr, n=6, initial 361 ± 7.7): 43.0 beats/min
- DBP Change (Δ) ([3]; 30 mg/kg p.o., 2 hr, n=6, initial 103 ± 3.6): -21.3 mmHg
- MBP Change (Δ) ([3]; 30 mg/kg p.o., 2 hr, n=6, initial 114 ± 3.6): -20.0 mmHg
- SBP Change (Δ) ([3]; 30 mg/kg p.o., 2 hr, n=6, initial 137 ± 3.7): -17.2 mmHg
- HR Change (Δ) ([3]; 30 mg/kg p.o., 2 hr, n=6, initial 361 ± 7.7): 77.8 beats/min
- DBP Change (Δ) ([3]; 30 mg/kg p.o., 3 hr, n=6, initial 103 ± 3.6): -25.5 mmHg
- MBP Change (Δ) ([3]; 30 mg/kg p.o., 3 hr, n=6, initial 114 ± 3.6): -25.1 mmHg
- SBP Change (Δ) ([3]; 30 mg/kg p.o., 3 hr, n=6, initial 137 ± 3.7): -24.3 mmHg
- HR Change (Δ) ([3]; 30 mg/kg p.o., 3 hr, n=6, initial 361 ± 7.7): 62.2 beats/min
- DBP Change (Δ) ([3]; 30 mg/kg p.o., 4 hr, n=6, initial 103 ± 3.6): -19.0 mmHg
- MBP Change (Δ) ([3]; 30 mg/kg p.o., 4 hr, n=6, initial 114 ± 3.6): -18.9 mmHg
- SBP Change (Δ) ([3]; 30 mg/kg p.o., 4 hr, n=6, initial 137 ± 3.7): -18.7 mmHg
- HR Change (Δ) ([3]; 30 mg/kg p.o., 4 hr, n=6, initial 361 ± 7.7): 55.0 beats/min
- DBP Change (Δ) ([3]; 30 mg/kg p.o., 5 hr, n=6, initial 103 ± 3.6): -16.7 mmHg
- MBP Change (Δ) ([3]; 30 mg/kg p.o., 5 hr, n=6, initial 114 ± 3.6): -16.5 mmHg
- SBP Change (Δ) ([3]; 30 mg/kg p.o., 5 hr, n=6, initial 137 ± 3.7): -16.2 mmHg
- HR Change (Δ) ([3]; 30 mg/kg p.o., 5 hr, n=6, initial 361 ± 7.7): 55.3 beats/min
- DBP Change (Δ) ([3]; 30 mg/kg p.o., 6 hr, n=6, initial 103 ± 3.6): -13.2 mmHg
- MBP Change (Δ) ([3]; 30 mg/kg p.o., 6 hr, n=6, initial 114 ± 3.6): -14.4 mmHg
- SBP Change (Δ) ([3]; 30 mg/kg p.o., 6 hr, n=6, initial 137 ± 3.7): -16.8 mmHg
- HR Change (Δ) ([3]; 30 mg/kg p.o., 6 hr, n=6, initial 361 ± 7.7): 30.5 beats/min
- DBP Change (Δ) ([3]; 30 mg/kg p.o., 8 hr, n=6, initial 103 ± 3.6): -12.5 mmHg
- MBP Change (Δ) ([3]; 30 mg/kg p.o., 8 hr, n=6, initial 114 ± 3.6): -13.5 mmHg
- SBP Change (Δ) ([3]; 30 mg/kg p.o., 8 hr, n=6, initial 137 ± 3.7): -15.3 mmHg
- HR Change (Δ) ([3]; 30 mg/kg p.o., 8 hr, n=6, initial 361 ± 7.7): 33.0 beats/min
- DBP Change (Δ) ([3]; 30 mg/kg p.o., 10 hr, n=6, initial 103 ± 3.6): -12.3 mmHg
- MBP Change (Δ) ([3]; 30 mg/kg p.o., 10 hr, n=6, initial 114 ± 3.6): -13.1 mmHg
- SBP Change (Δ) ([3]; 30 mg/kg p.o., 10 hr, n=6, initial 137 ± 3.7): -14.7 mmHg
- HR Change (Δ) ([3]; 30 mg/kg p.o., 10 hr, n=6, initial 361 ± 7.7): 22.5 beats/min
- DBP Change (Δ) ([3]; 30 mg/kg p.o., 24 hr, n=6, initial 103 ± 3.6): 0.7 mmHg
- MBP Change (Δ) ([3]; 30 mg/kg p.o., 24 hr, n=6, initial 114 ± 3.6): 0.7 mmHg
- SBP Change (Δ) ([3]; 30 mg/kg p.o., 24 hr, n=6, initial 137 ± 3.7): 0.7 mmHg
- HR Change (Δ) ([3]; 30 mg/kg p.o., 24 hr, n=6, initial 361 ± 7.7): 28.0 beats/min

Compound: COC(=O)C1=C(C)NC(C)=C(C(=O)OCCN(C)Cc2ccccc2)C1c1cccc([N+](=O)[O-])c1 (centres unmarked) [Nicardipine]
- cerebro- and/or coronary vasodilating action [4]: exhibits cerebro- and/or coronary vasodilating action

Compound: COC(=O)C1=C(C)NC(C)=C(C(=O)OC)C1c1ccccc1[N+](=O)[O-] [Nifedipine, reference compound]
- cerebro- and/or coronary vasodilating action [4]: exhibits cerebro- and/or coronary vasodilating action
- DBP Change (Δ) ([3]; 3 mg/kg p.o., 0.25 hr, n=8, initial 97 ± 1.8): -20.9 mmHg
- MBP Change (Δ) ([3]; 3 mg/kg p.o., 0.25 hr, n=8, initial 110 ± 1.8): -18.7 mmHg
- SBP Change (Δ) ([3]; 3 mg/kg p.o., 0.25 hr, n=8, initial 136 ± 2.2): -14.4 mmHg
- HR Change (Δ) ([3]; 3 mg/kg p.o., 0.25 hr, n=8, initial 349 ± 6.9): 77.4 beats/min
- DBP Change (Δ) ([3]; 3 mg/kg p.o., 0.5 hr, n=8, initial 97 ± 1.8): -19.9 mmHg
- MBP Change (Δ) ([3]; 3 mg/kg p.o., 0.5 hr, n=8, initial 110 ± 1.8): -19.1 mmHg
- SBP Change (Δ) ([3]; 3 mg/kg p.o., 0.5 hr, n=8, initial 136 ± 2.2): -17.6 mmHg
- HR Change (Δ) ([3]; 3 mg/kg p.o., 0.5 hr, n=8, initial 349 ± 6.9): 51.6 beats/min
- DBP Change (Δ) ([3]; 3 mg/kg p.o., 0.75 hr, n=8, initial 97 ± 1.8): -20.1 mmHg
- MBP Change (Δ) ([3]; 3 mg/kg p.o., 0.75 hr, n=8, initial 110 ± 1.8): -19.5 mmHg
- SBP Change (Δ) ([3]; 3 mg/kg p.o., 0.75 hr, n=8, initial 136 ± 2.2): -18.1 mmHg
- HR Change (Δ) ([3]; 3 mg/kg p.o., 0.75 hr, n=8, initial 349 ± 6.9): 35.4 beats/min
- DBP Change (Δ) ([3]; 3 mg/kg p.o., 1 hr, n=8, initial 97 ± 1.8): -18.9 mmHg
- SBP Change (Δ) ([3]; 3 mg/kg p.o., 1 hr, n=8, initial 136 ± 2.2): -17.0 mmHg
- HR Change (Δ) ([3]; 3 mg/kg p.o., 1 hr, n=8, initial 349 ± 6.9): 23.0 beats/min
- DBP Change (Δ) ([3]; 3 mg/kg p.o., 1.5 hr, n=8, initial 97 ± 1.8): -11.8 mmHg
- MBP Change (Δ) ([3]; 3 mg/kg p.o., 1.5 hr, n=8, initial 110 ± 1.8): -11.5 mmHg
- SBP Change (Δ) ([3]; 3 mg/kg p.o., 1.5 hr, n=8, initial 136 ± 2.2): -11.0 mmHg
- HR Change (Δ) ([3]; 3 mg/kg p.o., 1.5 hr, n=8, initial 349 ± 6.9): 12.9 beats/min
- DBP Change (Δ) ([3]; 3 mg/kg p.o., 2 hr, n=8, initial 97 ± 1.8): -9.4 mmHg
- MBP Change (Δ) ([3]; 3 mg/kg p.o., 2 hr, n=8, initial 110 ± 1.8): -9.7 mmHg
- SBP Change (Δ) ([3]; 3 mg/kg p.o., 2 hr, n=8, initial 136 ± 2.2): -10.4 mmHg
- HR Change (Δ) ([3]; 3 mg/kg p.o., 2 hr, n=8, initial 349 ± 6.9): 2.3 beats/min
- DBP Change (Δ) ([3]; 3 mg/kg p.o., 3 hr, n=8, initial 97 ± 1.8): -2.6 mmHg
- MBP Change (Δ) ([3]; 3 mg/kg p.o., 3 hr, n=8, initial 110 ± 1.8): -3.5 mmHg
- SBP Change (Δ) ([3]; 3 mg/kg p.o., 3 hr, n=8, initial 136 ± 2.2): -5.4 mmHg
- HR Change (Δ) ([3]; 3 mg/kg p.o., 3 hr, n=8, initial 349 ± 6.9): -20.3 beats/min
- DBP Change (Δ) ([3]; 3 mg/kg p.o., 4 hr, n=8, initial 97 ± 1.8): 0.9 mmHg
- MBP Change (Δ) ([3]; 3 mg/kg p.o., 4 hr, n=8, initial 110 ± 1.8): 0.5 mmHg
- SBP Change (Δ) ([3]; 3 mg/kg p.o., 4 hr, n=8, initial 136 ± 2.2): -0.3 mmHg
- HR Change (Δ) ([3]; 3 mg/kg p.o., 4 hr, n=8, initial 349 ± 6.9): -13.4 beats/min
